Data: US20040235874A1, “Fungicidal composition comprising pyrimethanil and iprodione” (priority 2001, published 2004)

Experiments:
Type in all cases: in vivo
Ascochyta pisi = assay: Control of Ascochyta pisi on protein-rich peas; settings: pea Baccara, 23 days after second application
Excerpt: This example illustrates the efficacy of a composition according to the invention which comprises pyrimethanil and iprodione as active ingredients for controlling Ascochyta pisi on protein-rich peas. The following fungicidal compounds are compared: […] pyrimethanil at the dose of 600 g/ha, […] Two successive […] carried out on pea plants (Baccara variety) at the flowering stages and then two weeks after the first application. 23 days after the second application, the percentage of diseased leaves and pods is calculated; the results are presented in table 5.

Alternaria solani = assay: Field control of Alternaria solani on potato; settings: potato Bintje
Excerpt: This example illustrates the efficacy of a composition according to the invention which comprises pyrimethanil and iprodione as active ingredients for controlling Alternaria solani on the potato. […] The following fungicidal compounds are compared: iprodione at the dose of 750 g/ha, pyrimethanil at the dose of 600 g/ha, […] The products are applied to potato (Bintje variety) which is sensitive to Alternaria solani. […] mancozeb—product tested—mancozeb—product tested—mancozeb—product tested. Scores for the disease (percentage of foliar surface area destroyed) are awarded 15 days after the second application of the experiment products (15 DAB), 8 days and 17 days after the third application of the experimental products (8 DAC and 17 DAC).

Alternaria dauci = assay: Field control of Alternaria dauci on carrot; settings: carrot Nantes
Excerpt: This example illustrates the efficacy of a composition according to the invention which comprises pyrimethanil and iprodione as active ingredients for controlling alternaria dauci on carrot. The following fungicidal compounds are compared: iprodione at the dose of 750 g/ha, pyrimethanil at the dose of 600 g/ha, […] The products are applied to carrot (Nantes variety) which is sensitive to Alternaria dauci. The various products to be studied are sprayed at the rate of 3 applications in total with intervals of 8 days between the 1st and 2nd applications and of 10 days between the 2nd and 3rd application. Scores for the disease (percentage of foliar surface area destroyed) are awarded 7 days after the 1st and 2nd applications and then 3 days and 8 days after the 3rd application.

Sclerotinia sclerotinium = assay: Control of Sclerotinia on lettuce, counting of attacked plants; settings: lettuce Manita
Description: This sample illustrates the efficacy of a composition according to the invention which comprises pyrimethanil and iprodione as active ingredients for controlling Sclerotinia sclerotinium on lettuce. The following fungicidal compounds are compared: iprodione at the dose of 750 g/ha, pyrimethanil at the dose of 800 g/ha, […] A total of 5 […] carried out on lettuce plants ([…] variety). An inoculation with Sclerotinia is carried out the next day after the first treatment by spreading contaminated rape plant stems on the soil. 11 countings of the lettuce plants attacked by Schlerotinia are carried out throughout the trial.

Alternaria porri = assay: Control of Alternaria porri on onion, yield at harvest; settings: for Yield (kg/ha): onion bulbs, harvest 32 days after last of 5 applications; for Yield gain (%): onion, compared with the untreated control
Description: This example illustrates the efficacy of a composition according to the invention which comprises pyrimethanil and iprodione as active ingredients for controlling Alternaria porri on onion.
The following fungicidal compounds are compared:
iprodione at the dose of 750 g/ha,
pyrimethanil at the dose of 600 g/ha,
iprodione+pyrimethanil at the doses of 300+150 g/ha to be applied in a mixture volume of 1 000 l/ha.
A total of 5 successive preventive sprayings are carried out on onion plants which were initially 31 days old and at a rhythm of 13 days.
32 days after the last application, harvesting is carried out and the yield is calculated in terms of kg of bulbs/ha and the yield gain expressed by comparing with the untreated control.

CC(C)NC(=O)N1CC(=O)N(c2cc(Cl)cc(Cl)c2)C1=O [iprodione]
Amount of diseased leaves (%) (Ascochyta pisi; 500 g/ha, first column): 46% | Amount of diseased leaves (%) (Ascochyta pisi; 500 g/ha, second column): 34% | Score for the disease (percentage of foliar surface area destroyed) (Alternaria solani; 750 g/ha, 8 DAC): 4.38% | Score for the disease (percentage of foliar surface area destroyed) (Alternaria solani; 750 g/ha, 15 DAB): 1.75% | Score for the disease (percentage of foliar surface area destroyed) (Alternaria solani; 750 g/ha, 17 DAC): 10% | Score for the disease (percentage of foliar surface area destroyed) (Alternaria dauci; 750 g/ha, 3 DAC): 19.4% | Score for the disease (percentage of foliar surface area destroyed) (Alternaria dauci; 750 g/ha, 7 DAA): 8.7% | Score for the disease (percentage of foliar surface area destroyed) (Alternaria dauci; 750 g/ha, 7 DAB): 11.9% | Score for the disease (percentage of foliar surface area destroyed) (Alternaria dauci; 750 g/ha, 8 DAC): 35% | Counting of the lettuce plants attacked by Sclerotinia (Sclerotinia sclerotinium; 750 g/ha, counting 1): 1 | Counting of the lettuce plants attacked by Sclerotinia (Sclerotinia sclerotinium; 750 g/ha, counting 2): 2.5 | Counting of the lettuce plants attacked by Sclerotinia (Sclerotinia sclerotinium; 750 g/ha, counting 3): 3 | Counting of the lettuce plants attacked by Sclerotinia (Sclerotinia sclerotinium; 750 g/ha, counting 4): 4 | Counting of the lettuce plants attacked by Sclerotinia (Sclerotinia sclerotinium; 750 g/ha, counting 5): 4 | Counting of the lettuce plants attacked by Sclerotinia (Sclerotinia sclerotinium; 750 g/ha, counting 6): 4.8 | Counting of the lettuce plants attacked by Sclerotinia (Sclerotinia sclerotinium; 750 g/ha, counting 7): 5.5 | Counting of the lettuce plants attacked by Sclerotinia (Sclerotinia sclerotinium; 750 g/ha, counting 8): 5.9 | Counting of the lettuce plants attacked by Sclerotinia (Sclerotinia sclerotinium; 750 g/ha, counting 9): 6.7 | Counting of the lettuce plants attacked by Sclerotinia (Sclerotinia sclerotinium; 750 g/ha, counting 10): 7.4 | Counting of the lettuce plants attacked by Sclerotinia (Sclerotinia sclerotinium; 750 g/ha, counting 11): 7.9 | Yield (kg/ha) (Alternaria porri; 750 g/ha): 33 000 kg/ha | Yield gain (%) (Alternaria porri; 750 g/ha): 16.8%

Cc1cc(C)nc(Nc2ccccc2)n1 [pyrimethanil]
Amount of diseased leaves (%) (Ascochyta pisi; 600 g/ha, first column): 21% | Amount of diseased leaves (%) (Ascochyta pisi; 600 g/ha, second column): 16% | Score for the disease (percentage of foliar surface area destroyed) (Alternaria solani; 600 g/ha, 8 DAC): 8.75% | Score for the disease (percentage of foliar surface area destroyed) (Alternaria solani; 600 g/ha, 15 DAB): 3.44% | Score for the disease (percentage of foliar surface area destroyed) (Alternaria solani; 600 g/ha, 17 DAC): 13.13% | Score for the disease (percentage of foliar surface area destroyed) (Alternaria dauci; 600 g/ha, 3 DAC): 31.2% | Score for the disease (percentage of foliar surface area destroyed) (Alternaria dauci; 600 g/ha, 7 DAA): 11.9% | Score for the disease (percentage of foliar surface area destroyed) (Alternaria dauci; 600 g/ha, 7 DAB): 21.9% | Score for the disease (percentage of foliar surface area destroyed) (Alternaria dauci; 600 g/ha, 8 DAC): 57.5% | Counting of the lettuce plants attacked by Sclerotinia (Sclerotinia sclerotinium; 800 g/ha, counting 1): 3.5 | Counting of the lettuce plants attacked by Sclerotinia (Sclerotinia sclerotinium; 800 g/ha, counting 2): 5.5 | Counting of the lettuce plants attacked by Sclerotinia (Sclerotinia sclerotinium; 800 g/ha, counting 3): 8 | Counting of the lettuce plants attacked by Sclerotinia (Sclerotinia sclerotinium; 800 g/ha, counting 4): 14.8 | Counting of the lettuce plants attacked by Sclerotinia (Sclerotinia sclerotinium; 800 g/ha, counting 5): 18 | Counting of the lettuce plants attacked by Sclerotinia (Sclerotinia sclerotinium; 800 g/ha, counting 6): 22.8 | Counting of the lettuce plants attacked by Sclerotinia (Sclerotinia sclerotinium; 800 g/ha, counting 7): 26 | Counting of the lettuce plants attacked by Sclerotinia (Sclerotinia sclerotinium; 800 g/ha, counting 8): 29.4 | Counting of the lettuce plants attacked by Sclerotinia (Sclerotinia sclerotinium; 800 g/ha, counting 9): 31.4 | Counting of the lettuce plants attacked by Sclerotinia (Sclerotinia sclerotinium; 800 g/ha, counting 10): 33.9 | Counting of the lettuce plants attacked by Sclerotinia (Sclerotinia sclerotinium; 800 g/ha, counting 11): 35.8 | Yield (kg/ha) (Alternaria porri; 600 g/ha): 31 500 kg/ha | Yield gain (%) (Alternaria porri; 600 g/ha): 11.5%
